Test results: US20240041042A1, “1-(PYRIDYL)-5-AZINYLPYRAZOLE DERIVATIVES, AND THEIR USE FOR CONTROL OF UNDESIRED PLANT GROWTH” (Bayer Aktiengesellschaft, priority 2020, published 2024)
Read-outs that look alike come from different tables or passages of the source.

Assays:
Format in all cases: in vivo
[1] = test system: Viola tricolor (VIOTR); assay: Post-emergence herbicidal action against VIOTR
In short: (§1)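 Greenhouse plants sprayed at the one-leaf stage, 2–3 weeks after sowing, with WP or EC formulations plus 0.5% additive at 600 l/ha water. Activity rated visually after about 3 weeks versus untreated controls (100% = dead, 0% = like control), at 320 g/ha or lower.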

[2] = test system: Avena fatua (AVEFA); assay: Post-emergence herbicidal action against AVEFA; details: visual rating about 3 weeks after treatment
In short: as §1

[3] = test system: Echinochloa crus-galli (ECHCG); assay: Post-emergence herbicidal action against ECHCG
In short: as §1

[4] = test system: Pharbitis purpurea (PHBPU); assay: Post-emergence herbicidal action against PHBPU
In short: as §1

[5] = test system: Digitaria sanguinalis (DIGSA); assay: Post-emergence herbicidal action against DIGSA; details: visual rating about 3 weeks after treatment
Protocol: Seeds of monocotyledonous and dicotyledonous weeds and crop plants are placed in sandy loam in plastic or organic planting pots, covered with soil and cultivated in a greenhouse under controlled growth conditions. 2 to 3 weeks after sowing, the test plants are treated at the one-leaf stage. The compounds of the invention, formulated in the form of wettable powders (WP) or as emulsion concentrates (EC), are then sprayed onto the green parts of the plants as aqueous suspension or emulsion with addition of 0.5% additive at a water application rate of 600 l/ha (converted). After the test plants have been kept in the greenhouse under optimum growth conditions for about 3 weeks, the activity of the preparations is rated visually in comparison to untreated controls. For example, 100% activity=the plants have died, 0% activity=like control plants.
Tables B1 to B13 below show the effects of selected compounds of the general formula (I) according to Table 1 on various harmful plants and at an application rate corresponding to 320 g/ha or lower, which were obtained by the experimental procedure mentioned above. The appendices “a”, “b” and “c” give differentiation by dosage used with otherwise the same harmful plants tested.

[6] = test system: Alopecurus myosuroides (ALOMY); assay: Post-emergence herbicidal action against ALOMY; details: 320 g/ha, visual rating about 3 weeks after treatment vs untreated controls (100% = plants have died, 0% = like control plants)
In short: as §1

[7] = test system: Oryza sativa (ORYSA); details: crop plant compatibility
In short: (§2)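 Effects were read visually as % versus untreated controls (0% = no effect, 100% = death) about 3 weeks post-treatment. Application was a post-emergence spray at the one-leaf stage of WP/EC formulations with 0.5% additive at 600 l/ha. Different dosages are denoted a, b and c.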

[8] = test system: Zea mays (ZEAMX)
In short: as §2

[9] = test system: Setaria viridis (SETVI); assay: Post-emergence herbicidal action against SETVI
In short: as §1

[10] = test system: Lolium rigidum (LOLRI); assay: Post-emergence herbicidal action against LOLRI
In short: as §1

[11] = test system: Polygonum convolvulus (POLCO); assay: Post-emergence herbicidal action against POLCO
In short: as §1

[12] = test system: Verconica persica (VERPE); assay: Post-emergence herbicidal action against VERPE
In short: as §1

[13] = test system: Abutilon theophrasti (ABUTH); assay: Post-emergence herbicidal action against ABUTH; details: 320 g/ha, visual rating about 3 weeks after treatment vs untreated controls (100% = plants have died, 0% = like control plants)
In short: as §1

[14] = 20 g/ha, effect vs untreated controls
[15] = 80 g/ha, effect in comparison to untreated controls

Post-emergence action against ORYSA in % [7, 14] [%]	Post-emergence action against ORYSA in % [7, 15] [%]	SMILES	Post-emergence action against VIOTR in % ([1]; 320 g/ha) [%]	Post-emergence action against AVEFA in % ([2]; 80 g/ha) [%]	Post-emergence action against AVEFA in % ([2]; 320 g/ha) [%]	Post-emergence action against ECHCG in % ([3]; dosage 320 g/ha) [%]	Post-emergence action against PHBPU in % ([4]; dosage 80 g/ha) [%]	Post-emergence action against PHBPU in % ([4]; dosage 320 g/ha) [%]	Post-emergence action against DIGSA in % ([5]; 80 g/ha) [%]	Post-emergence action against DIGSA in % ([5]; 320 g/ha) [%]	Post-emergence action against ALOMY in % [6] [%]	Post-emergence action against SETVI in % ([9]; dosage 80 g/ha) [%]	Post-emergence action against SETVI in % ([9]; dosage 320 g/ha) [%]	Post-emergence action against LOLRI in % ([10]; dosage 320 g/ha) [%]	Post-emergence action against POLCO in % ([11]; dosage 320 g/ha) [%]	Post-emergence action against VERPE in % ([12]; 320 g/ha, VERPE) [%]	Post-emergence action against VERPE in % ([12]; dosage 80 g/ha) [%]	also measured
0	10	COC(=O)C(C)COC(=O)COc1nn(-c2ncccc2F)c(-c2ccc(F)nc2)c1C1CC1 (stereo not drawn) [Example I-382]	90	90	90	90	80	80	80	90	90	90	90	90	80	80	80	Post-emergence action against VIOTR in % ([1]; 80 g/ha): 80%; Post-emergence action against ECHCG in % ([3]; dosage 80 g/ha): 80%; Post-emergence action against ZEAMX in % (crop plant compatibility) ([8]; 20 g/ha, ZEAMX, effect in comparison to untreated controls): 0%; Post-emergence action against ZEAMX in % ([8]; crop plant compatibility, 80 g/ha, effect vs untreated controls): 20%
0	10	COC(=O)C(C)OC(=O)C(C)Oc1nn(-c2ccccn2)c(-c2ccc(F)nc2)c1Br (stereo not drawn) [Example I-288]	80	80	90	80	80	90	80	90	90	90	90	80	80	80	80	Post-emergence action against LOLRI in % ([10]; dosage 80 g/ha): 80%
10	10	C[C@@H](Oc1nn(-c2ccccn2)c(-c2ccc(F)nc2)c1Br)C(=O)O [Example I-260]	–	80	80	90	–	80	90	90	90	–	90	80	80	80	–	Post-emergence action against ABUTH in % [13]: 80%; Post-emergence action against POLCO in % ([11]; dosage 80 g/ha): 80%
